Experimental data as given in the supplement of paper PMC10307832.

Key:
Experiment in all cases: relative viability (nuclei count vs DMSO), 5 days (fraction); higher = more cells survive
NCI-H2126 = tested on: NCI-H2126
Method in brief: (§1)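 Relative viability divides the nuclei count in treated wells by that in vehicle wells. Lung cancer cell lines were seeded in 1536-well plates, dosed by pin tool the next day, and fixed and stained after 5 days in one step with final 0.05% Triton X-100, 1% formaldehyde and 1 ug/ml Hoechst. Dosing was a single drug or a fixed anchor-drug dose plus five library-drug doses (not always all listed) in √10 steps, and values are medians of duplicate plates imaged at 4×.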

NCI-H1755 = tested on: NCI-H1755
Method in brief: as §1

NCI-H2170 = tested on: NCI-H2170
Method in brief: as §1

SK-MES-1 = tested on: SK-MES-1
Method in brief: as §1

ChaGo-K-1 = tested on: ChaGo-K-1
Method in brief: as §1

LXF-289 = tested on: LXF-289
Method in brief: as §1

NCI-H2087 = tested on: NCI-H2087
Method in brief: as §1

ABC-1 = tested on: ABC-1
Method in brief: as §1

201T = tested on: 201T
Method in brief: as §1

NCI-H322M = tested on: NCI-H322M
Method in brief: as §1

EMC-BAC-2 = tested on: EMC-BAC-2
Method in brief: as §1

NCI-H1734 = tested on: NCI-H1734
Method in brief: as §1

NCI-H3122 = tested on: NCI-H3122
Method in brief: as §1

NCI-H1651 = tested on: NCI-H1651
Method in brief: as §1

NCI-H596 = tested on: NCI-H596
Method in brief: as §1

NCI-H441 = tested on: NCI-H441
Method in brief: as §1

PC-14 = tested on: PC-14
Method in brief: as §1

NCI-H2009 = tested on: NCI-H2009
Method in brief: as §1

HOP-62 = tested on: HOP-62
Method in brief: as §1

LK-2 = tested on: LK-2
Method in brief: as §1

H3255 = tested on: H3255
Method in brief: as §1

NCI-H647 = tested on: NCI-H647
Method in brief: as §1

Which results are given for `O=c1[nH]c2ccccc2n1C1CCN(CCCC(c2ccc(F)cc2)c2ccc(F)cc2)CC1` [Pimozide] + Nc1ncn([C@H]2C[C@H](O)[C@@H](CO)O2)c(=O)n1 [Decitabine] (partner 2 µM)?
relative viability (NCI-H2126; first compound 0.08 µM): 0.613; relative viability (NCI-H2126; first compound 0.253 µM): 0.576; relative viability (NCI-H2126; first compound 0.8 µM): 0.549; relative viability (NCI-H2126; first compound 2.53 µM): 0.557; relative viability (NCI-H2126; first compound 8 µM): 0.62; relative viability (NCI-H1755; first compound 0.08 µM): 0.675; relative viability (NCI-H1755; first compound 0.253 µM): 0.659; relative viability (NCI-H1755; first compound 0.8 µM): 0.624; relative viability (NCI-H1755; first compound 2.53 µM): 0.684; relative viability (NCI-H1755; first compound 8 µM): 0.69; relative viability (NCI-H2170; first compound 0.08 µM): 0.43; relative viability (NCI-H2170; first compound 0.253 µM): 0.453; relative viability (NCI-H2170; first compound 0.8 µM): 0.432; relative viability (NCI-H2170; first compound 2.53 µM): 0.477; relative viability (NCI-H2170; first compound 8 µM): 0.454; relative viability (SK-MES-1; first compound 0.08 µM): 0.389; relative viability (SK-MES-1; first compound 0.253 µM): 0.39; relative viability (SK-MES-1; first compound 0.8 µM): 0.355; relative viability (SK-MES-1; first compound 2.53 µM): 0.454; relative viability (SK-MES-1; first compound 8 µM): 0.774; relative viability (ChaGo-K-1; first compound 0.08 µM): 0.515; relative viability (ChaGo-K-1; first compound 0.253 µM): 0.453; relative viability (ChaGo-K-1; first compound 0.8 µM): 0.5; relative viability (ChaGo-K-1; first compound 2.53 µM): 0.546; relative viability (ChaGo-K-1; first compound 8 µM): 0.546; relative viability (LXF-289; first compound 0.08 µM): 0.378; relative viability (LXF-289; first compound 0.253 µM): 0.4; relative viability (LXF-289; first compound 0.8 µM): 0.324; relative viability (LXF-289; first compound 2.53 µM): 0.357; relative viability (LXF-289; first compound 8 µM): 0.39; relative viability (NCI-H2087; first compound 0.08 µM): 0.277; relative viability (NCI-H2087; first compound 0.253 µM): 0.328; relative viability (NCI-H2087; first compound 2.53 µM): 0.342; relative viability (NCI-H2087; first compound 8 µM): 0.275; relative viability (ABC-1; first compound 0.08 µM): 1.18; relative viability (ABC-1; first compound 0.253 µM): 0.831; relative viability (ABC-1; first compound 0.8 µM): 1.22; relative viability (ABC-1; first compound 2.53 µM): 1.08; relative viability (ABC-1; first compound 8 µM): 1.02; relative viability (201T; first compound 0.08 µM): 0.827; relative viability (201T; first compound 0.253 µM): 0.846; relative viability (201T; first compound 0.8 µM): 0.829; relative viability (201T; first compound 2.53 µM): 0.844; relative viability (201T; first compound 8 µM): 0.711; relative viability (NCI-H322M; first compound 0.08 µM): 0.581; relative viability (NCI-H322M; first compound 0.253 µM): 0.705; relative viability (NCI-H322M; first compound 0.8 µM): 0.719; relative viability (NCI-H322M; first compound 2.53 µM): 0.772; relative viability (NCI-H322M; first compound 8 µM): 0.632; relative viability (EMC-BAC-2; first compound 0.08 µM): 0.956; relative viability (EMC-BAC-2; first compound 0.253 µM): 0.918; relative viability (EMC-BAC-2; first compound 0.8 µM): 0.911; relative viability (EMC-BAC-2; first compound 2.53 µM): 0.953; relative viability (EMC-BAC-2; first compound 8 µM): 0.983; relative viability (NCI-H1734; first compound 0.08 µM): 0.51; relative viability (NCI-H1734; first compound 0.253 µM): 0.489; relative viability (NCI-H1734; first compound 0.8 µM): 0.525; relative viability (NCI-H1734; first compound 2.53 µM): 0.431; relative viability (NCI-H1734; first compound 8 µM): 0.509; relative viability (NCI-H3122; first compound 0.08 µM): 0.435; relative viability (NCI-H3122; first compound 0.253 µM): 0.392; relative viability (NCI-H3122; first compound 0.8 µM): 0.418; relative viability (NCI-H3122; first compound 2.53 µM): 0.413; relative viability (NCI-H3122; first compound 8 µM): 0.416; relative viability (NCI-H1651; first compound 0.08 µM): 0.597; relative viability (NCI-H1651; first compound 0.253 µM): 0.507; relative viability (NCI-H1651; first compound 0.8 µM): 0.719; relative viability (NCI-H1651; first compound 2.53 µM): 0.588; relative viability (NCI-H1651; first compound 8 µM): 0.611; relative viability (NCI-H596; first compound 0.08 µM): 0.97; relative viability (NCI-H596; first compound 0.253 µM): 0.931; relative viability (NCI-H596; first compound 0.8 µM): 0.986; relative viability (NCI-H596; first compound 2.53 µM): 0.85; relative viability (NCI-H596; first compound 8 µM): 1.08; relative viability (NCI-H441; first compound 0.08 µM): 0.208; relative viability (NCI-H441; first compound 0.253 µM): 0.255; relative viability (NCI-H441; first compound 0.8 µM): 0.234; relative viability (NCI-H441; first compound 2.53 µM): 0.236; relative viability (NCI-H441; first compound 8 µM): 0.241; relative viability (PC-14; first compound 0.253 µM): 0.221; relative viability (PC-14; first compound 0.8 µM): 0.228; relative viability (PC-14; first compound 2.53 µM): 0.144; relative viability (PC-14; first compound 8 µM): 0.231; relative viability (NCI-H2009; first compound 0.08 µM): 0.442; relative viability (NCI-H2009; first compound 0.253 µM): 0.374; relative viability (NCI-H2009; first compound 0.8 µM): 0.327; relative viability (NCI-H2009; first compound 2.53 µM): 0.436; relative viability (NCI-H2009; first compound 8 µM): 0.412; relative viability (HOP-62; first compound 0.08 µM): 0.231; relative viability (HOP-62; first compound 0.253 µM): 0.228; relative viability (HOP-62; first compound 2.53 µM): 0.245; relative viability (HOP-62; first compound 8 µM): 0.244; relative viability (LK-2; first compound 0.08 µM): 0.25; relative viability (LK-2; first compound 0.253 µM): 0.289; relative viability (LK-2; first compound 0.8 µM): 0.28; relative viability (LK-2; first compound 2.53 µM): 0.296; relative viability (LK-2; first compound 8 µM): 0.33; relative viability (H3255; first compound 0.253 µM): 0.538; relative viability (H3255; first compound 0.8 µM): 0.496; relative viability (H3255; first compound 2.53 µM): 0.626; relative viability (H3255; first compound 8 µM): 0.734; relative viability (NCI-H647; first compound 0.08 µM): 0.37; relative viability (NCI-H647; first compound 0.253 µM): 0.363; relative viability (NCI-H647; first compound 0.8 µM): 0.392; relative viability (NCI-H647; first compound 2.53 µM): 0.442; relative viability (NCI-H647; first compound 8 µM): 0.508
